In general, IC50 refers to the midpoint of a concentration-inhibition curve.

≈ marks a conversion by molar mass, not a printed value.

The test system of this test is HCT-116. The test is described as follows: Cytotoxicity against human HCT116 cells. It counts as functional, cell-based.
For `CC(C)[C@@H]1NC(=O)c2csc(n2)[C@H](C(C)C)NC(=O)c2csc(n2)[C@H](C(C)C)NC(=O)[C@H]2N=C1O[C@@H]2C` [BISTRATAMIDE E], 7.9 µg/mL (≈ 14.4 µM) corresponded to half-maximal inhibition (IC50).
With `CC(C)[C@@H]1NC(=O)[C@H]2N=C(O[C@@H]2C)[C@H](C(C)C)NC(=O)c2csc(n2)[C@H](C(C)C)NC(=O)[C@@H]2COC1=N2` [BISTRATAMIDE F] the figure was 28 µg/mL (≈ 52.6 µM); with `Cc1oc2nc1C(=O)N[C@@H](C(C)C)c1nc(co1)C(=O)N[C@@H](C(C)C)c1nc(cs1)C(=O)N[C@H]2C(C)C` [BISTRATAMIDE G], 5 µg/mL (≈ 9.46 µM); with `Cc1oc2nc1C(=O)N[C@@H](C(C)C)c1nc(cs1)C(=O)N[C@@H](C(C)C)c1nc(cs1)C(=O)N[C@H]2C(C)C` [BISTRATAMIDE H], 1.7 µg/mL (≈ 3.12 µM).
To `CC(C)[C@@H]1NC(=O)c2csc(n2)[C@H](C(C)C)NC(=O)c2coc(n2)[C@H](C(C)C)NC(=O)[C@H]([C@@H](C)O)NC1=O` [BISTRATAMIDE I] belongs 9 µg/mL (≈ 16.4 µM).
With `CC(C)[C@@H]1NC(=O)c2csc(n2)[C@H](C(C)C)NC(=O)c2csc(n2)[C@H](C(C)C)NC(=O)[C@H]([C@@H](C)O)NC1=O` [BISTRATAMIDE J] the figure was 1 µg/mL (≈ 1.77 µM).

Source of the values: ChEMBL document CHEMBL1159341, “Bistratamides E-J, modified cyclic hexapeptides from the Philippines ascidian Lissoclinum bistratum” (J Nat Prod, 2003).
